{"source": "patent US7473760B2", "about": "“Cyclic peptide compositions for treatment of sexual dysfunction” (Palatin Technologies, Inc., priority 1999, dated 2009)", "key": {"[1]": {"molecular_target": "MC1-R (B16-F1 mouse melanoma cells) (Mus musculus, UniProt Q01727)", "sequence (Q01727 whole entry)": "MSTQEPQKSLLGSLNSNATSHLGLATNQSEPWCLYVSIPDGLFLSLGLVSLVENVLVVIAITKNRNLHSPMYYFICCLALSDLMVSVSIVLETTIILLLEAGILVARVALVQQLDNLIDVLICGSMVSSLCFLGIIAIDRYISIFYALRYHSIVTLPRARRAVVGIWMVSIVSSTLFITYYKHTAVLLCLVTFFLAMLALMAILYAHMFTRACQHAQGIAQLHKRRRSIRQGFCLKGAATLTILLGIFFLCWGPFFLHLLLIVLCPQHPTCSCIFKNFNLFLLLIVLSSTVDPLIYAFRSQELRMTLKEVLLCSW", "assay": "Competitive inhibition binding assay with 125I-NDP-MSH, MC1-R", "conditions": "1 μM peptide, B16-F1 mouse melanoma membranes, read-out: Percent Inhibition At 1 μM concentration MC1-R", "quoted_text": "Each assay was conducted in triplicate.\n(§1) B16-F1 mouse melanoma cells were used as the source of MC1 receptors; HEK 293 cells, transfected with human melanocortin receptor sequences, were used as the source of MC3, MC4 and MC5 receptors."}, "hMC3-R": {"molecular_target": "T1, hMC3-R (Homo sapiens, UniProt P41968)", "T1 construct": "expressed in transfected cells; host or cells: HEK 293 cells (membranes)", "T1 sequence (P41968 whole entry)": "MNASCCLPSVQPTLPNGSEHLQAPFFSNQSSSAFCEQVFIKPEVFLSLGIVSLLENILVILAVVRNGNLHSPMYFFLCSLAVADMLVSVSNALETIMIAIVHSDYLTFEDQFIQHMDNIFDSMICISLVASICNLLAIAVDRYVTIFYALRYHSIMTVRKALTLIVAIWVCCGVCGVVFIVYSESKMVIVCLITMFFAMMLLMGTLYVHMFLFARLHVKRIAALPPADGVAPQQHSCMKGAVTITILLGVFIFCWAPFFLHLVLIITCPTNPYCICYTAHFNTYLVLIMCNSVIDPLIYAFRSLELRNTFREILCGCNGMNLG", "assay": "Competitive inhibition binding assay with 125I-NDP-MSH, MC3-R", "conditions": "1 μM peptide, HEK 293 human MC3, read-out: Percent Inhibition At 1 μM concentration MC3-R", "quoted_text": "Each assay was conducted in triplicate.\nas §1"}, "hMC4-R [2]": {"molecular_target": "T2, hMC4-R (Homo sapiens, UniProt P32245)", "T2 construct": "expressed in transfected cells; whole cells for cAMP", "T2 sequence (P32245 whole entry)": "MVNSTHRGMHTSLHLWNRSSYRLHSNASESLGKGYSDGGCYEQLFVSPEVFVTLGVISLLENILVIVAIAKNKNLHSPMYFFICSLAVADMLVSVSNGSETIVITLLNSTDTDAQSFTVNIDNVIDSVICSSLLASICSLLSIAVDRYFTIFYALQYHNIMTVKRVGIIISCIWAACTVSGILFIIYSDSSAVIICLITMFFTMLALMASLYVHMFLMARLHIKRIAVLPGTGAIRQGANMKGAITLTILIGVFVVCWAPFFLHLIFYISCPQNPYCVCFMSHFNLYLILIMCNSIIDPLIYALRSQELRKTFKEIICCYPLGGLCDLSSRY", "assay": "Competitive inhibition binding assay with 125I-NDP-MSH, MC4-R", "conditions": "1 μM peptide, HEK 293 human MC4, read-out: Percent Inhibition At 1 μM concentration MC4-R", "quoted_text": "Each assay was conducted in triplicate.\nas §1"}, "hMC5-R": {"molecular_target": "T3, hMC5-R (Homo sapiens, UniProt P33032)", "T3 construct": "expressed in transfected cells; host or cells: HEK 293 cells (membranes)", "T3 sequence (P33032 whole entry)": "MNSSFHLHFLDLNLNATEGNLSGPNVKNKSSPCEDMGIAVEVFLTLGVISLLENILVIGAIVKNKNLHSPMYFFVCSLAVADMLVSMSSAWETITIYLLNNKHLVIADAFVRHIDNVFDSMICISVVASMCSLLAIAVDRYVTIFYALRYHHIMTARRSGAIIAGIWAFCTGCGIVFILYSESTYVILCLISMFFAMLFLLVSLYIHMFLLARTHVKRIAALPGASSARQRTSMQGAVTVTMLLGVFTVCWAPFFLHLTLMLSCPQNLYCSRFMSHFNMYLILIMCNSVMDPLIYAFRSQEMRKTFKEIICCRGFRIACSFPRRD", "assay": "Competitive inhibition binding assay with 125I-NDP-MSH, MC5-R", "conditions": "1 μM peptide, HEK 293 human MC5, read-out: Percent Inhibition At 1 μM concentration MC5-R", "quoted_text": "Each assay was conducted in triplicate.\nas §1"}, "hMC4-R [3]": {"molecular_target": "T2, hMC4-R", "assay": "Stimulation of intracellular cAMP production in transfected HEK-293 cells expressing hMC4-R", "format": "cell-based", "method": "Functional assays to determine agonist or antagonist status of a cyclic peptide of the invention may be conducted by any means known in the art. In one method, a cAMP assay is performed. Human MC4-R cells are grown to confluence in 96 well plates (plating approximately 250,000 cells per well). Identical sets of cells in triplicate are treated with 0.2 mM isobutylmethylxanthine (IBMX) and the chosen concentration of the peptide or alternatively the peptide in the presence of 20 nM NDP-MSH. Cells similarly treated but with only 20 nM NDP-MSH serve as positive controls in a volume of 200 μL. A buffer blank, as a negative control, is also included. Incubation is for one hour at 37° C. after which the cells are lysed by the addition of 50 μL of a cell lysis buffer. Total cAMP accumulated in 250 μL of this solution is quantitated using a commercially available low pH cAMP assay kit (Amersham BioSciences) by the procedure specified by the kit supplier. Any peptide showing cAMP accumulation in the same range as or higher than the positive control (buffer blank in the presence of α-MSH) is considered to be an agonist. A peptide showing accumulation in the same range as the negative control (buffer blank in the absence of α-MSH) is ineffective at the test concentration if the result is similar to the positive control where α-MSH is also present in the assay. A peptide showing accumulation in the same range as the negative control is considered to be an antagonist if there is inhibition in cAMP when α-MSH is present in the assay. Similar methods may be employed for MC3-R, using MC3-R cells."}, "male Sprague-Dawley rats": {"test_system": "male Sprague-Dawley rats", "assay": "Induction of penile erections in male rats", "format": "in vivo, rat", "conditions": "3 μg/kg intravenous; male rats observed 30 minutes", "method": "Male Sprague-Dawley rats weighing 200-250 g were kept on a 12 hour on/off light cycle with food and water ad libitum. All behavioral studies were performed between 10 a.m. and 5 p.m. Groups of 6 rats were treated with peptides at a variety of doses, primarily 3 μg/kg, via intravenous administration. Immediately after administration, rats were placed into individual polystyrene cages (27 cm long, 16 cm wide, and 25 cm high) for behavioral observation. […] Using the above procedure, the mean number of penile erections for each rat on intravenous administration of 3 μg/kg was determined as shown on Table 2."}, "[4]": {"test_system": "men with psychogenic erectile dysfunction", "conditions": "subcutaneous, 0.025 to 0.157 mg/kg, cited from earlier work"}}, "data": [{"compound": "CCCC[C@H](NC(C)=O)C(=O)N[C@H]1CC(=O)NCCCC[C@@H](C(=O)O)NC(=O)[C@H](Cc2c[nH]c3ccccc23)NC(=O)[C@H](CCCCN)NC(=O)[C@@H](Cc2ccccc2)NC(=O)[C@H](Cc2c[nH]cn2)NC1=O", "note": "[Ac-Nle-cyclo(-Asp-His-D-Phe-Lys-Trp-Lys)-OH]", "values": [{"measurement": "inhibition at 1 µM", "setting": "[1]", "result": 86, "unit": "%"}, {"measurement": "inhibition at 1 µM", "setting": "hMC3-R", "result": 8, "unit": "%"}, {"measurement": "inhibition at 1 µM", "setting": "hMC4-R [2]", "result": 46, "unit": "%"}, {"measurement": "inhibition at 1 µM", "setting": "hMC5-R", "result": 17, "unit": "%"}, {"measurement": "Functional Activity at MC4-R", "setting": "hMC4-R [3]", "result": "Agonist"}, {"measurement": "Mean PE/Rat (mean number of penile erections for each rat)", "setting": "male Sprague-Dawley rats", "result": 1.33}]}, {"compound": "Ac-Nle-cyclo(-Asp-D-His-D-Phe-Arg-Trp-Lys)-OH", "values": [{"measurement": "Mean PE/Rat (mean number of penile erections for each rat)", "setting": "male Sprague-Dawley rats", "result": 0.33}]}, {"compound": "Ac-Nle-cyclo(-Asp-His-D-Phe(4-Cl)-Arg-Trp-Lys)-OH", "values": [{"measurement": "Mean PE/Rat (mean number of penile erections for each rat)", "setting": "male Sprague-Dawley rats", "result": 0.33}]}, {"compound": "Ac-Nle-cyclo(-Asp-His-D-Phe-Arg-D-Trp-Lys)-OH", "values": [{"measurement": "Mean PE/Rat (mean number of penile erections for each rat)", "setting": "male Sprague-Dawley rats", "result": 0.83}]}, {"compound": "Ac-Nle-cyclo(-Asp-His-D-Phe-Arg-Nal 1-Lys)-OH", "values": [{"measurement": "Mean PE/Rat (mean number of penile erections for each rat)", "setting": "male Sprague-Dawley rats", "result": 0.33}]}, {"compound": "Ac-Nle-cyclo(-Asp-His-Phe-Arg-Trp-Lys)-OH", "values": [{"measurement": "Functional Activity at MC4-R", "setting": "hMC4-R [3]", "result": "Inactive"}]}, {"compound": "Ac-Nle-cyclo(-Asp-Phe-D-Phe-Arg-Trp-Lys)-OH", "values": [{"measurement": "Mean PE/Rat (mean number of penile erections for each rat)", "setting": "male Sprague-Dawley rats", "result": 0.33}]}, {"compound": "Ac-Nle-cyclo(-Asp-Trp-D-Phe-Arg-Trp-Lys)-OH", "values": [{"measurement": "Mean PE/Rat (mean number of penile erections for each rat)", "setting": "male Sprague-Dawley rats", "result": 0.5}]}, {"compound": "Ac-Nle-cyclo(-Asp-Tyr-D-Phe-Arg-Trp-Lys)-OH", "values": [{"measurement": "Mean PE/Rat (mean number of penile erections for each rat)", "setting": "male Sprague-Dawley rats", "result": 0.67}]}, {"compound": "Ahx-cyclo(-Asp-His-D-Phe-Arg-Trp-Lys)-OH", "values": [{"measurement": "Mean PE/Rat (mean number of penile erections for each rat)", "setting": "male Sprague-Dawley rats", "result": 0.33}]}, {"compound": "Melanotan-II", "values": [{"measurement": "transient side effects", "setting": "[4]", "result": "nausea, stretching and yawning, and decreased appetite"}, {"measurement": "mean duration of tip rigidity greater than 80%", "setting": "[4]; placebo 3.0 minutes, p=0.0045", "result": 38, "unit": "min"}]}, {"compound": "cyclo(-Succ-His-D-Phe-Arg-Trp-Lys)-OH (FRWK; cyclic succinyl, His, D-residue prefix; printed: Phe-Arg-Trp-Lys)", "values": [{"measurement": "Functional Activity at MC4-R", "setting": "hMC4-R [3]", "result": "Agonist"}]}]}
